# From patent US4797280A, “Antibiotics produced by Kibdelosporangium aridum Shearer gen. nov., sp. nov. ATCC 39323” (SmithKline Beckman Corporation, priority 1986, dated 1989)
# Legend:
# Kibdelosporangium aridum = assay: Susceptibility of K. aridum to antibiotics, disk diffusion; format: cell-based; conditions: disk 10 units, 28° C., one week
# Description: Susceptibility of K. aridum to antibiotics was examined by placing BBL susceptibility disks on nutrient agar plates seeded with K. aridum as an overlay. Diameters of the zones of inhibition were measured after incubation for one week at 28° C.
# Susceptibility to Antibiotics. […] Chlortetracycline ([…]) produced 18 mm zones of inhibition; tetracycline (5 μg) 11-12 mm zones; rifampin (5 μg) 11-15 mm zones; novobiocin (5 μg) 27-28 mm zones. All zones of inhibition contained at least a few resistant colonies.
# [1] = system: rumen fluid from dairy cows; assay: Rumen in vitro experiment with dairy cow rumen fluid; conditions: about 23 hours
# Description: A similar experiment was carried out using rumen fluid from dairy cows fed a typical dairy cow diet of two parts corn silage and three parts dairy concentrate. Specifically, strained rumen fluid (10 ml) was obtained, from an animal fed two hours earlier, via cannula and was mixed with 10 ml of a nutrient broth comprising a 2:3 mix of corn silage and dairy concentrate. After adding a selected growth promotant, the mixture was incubated at 39° C. for about 23 hours, with oscillation.
# rumen inoculum = assay: Rumen in vitro model; parameters: species or system steer
compound,measurement,setting,value
CC1(C)S[C@@H]2[C@H](NC(=O)Cc3ccccc3)C(=O)N2[C@H]1C(=O)O [penicillin],Susceptibility of K. aridum,Kibdelosporangium aridum,resistant
Saloinomycin,% PR,[1]; 0.5 ppm,126% OF CONTROL
same,ACE,[1]; 0.5 ppm,95% OF CONTROL
same,AMO,[1]; 0.5 ppm,117% OF CONTROL
same,BUT,[1]; 0.5 ppm,83% OF CONTROL
same,DLAC,[1]; 0.5 ppm,0% OF CONTROL
same,ETOH,[1]; 0.5 ppm,0% OF CONTROL
same,GLU,[1]; 0.5 ppm,0% OF CONTROL
same,IBU,[1]; 0.5 ppm,153% OF CONTROL
same,IVA,[1]; 0.5 ppm,110% OF CONTROL
same,LLAC,[1]; 0.5 ppm,0% OF CONTROL
same,LYS,[1]; 0.5 ppm,119% OF CONTROL
same,NH--N,[1]; 0.5 ppm,136% OF CONTROL
same,PRO,[1]; 0.5 ppm,124% OF CONTROL
same,TOTAL,[1]; 0.5 ppm,99% OF CONTROL
same,VAL,[1]; 0.5 ppm,94% OF CONTROL
same,% PR,[1]; 5 ppm,152% OF CONTROL
same,ACE,[1]; 5 ppm,99% OF CONTROL
same,AMO,[1]; 5 ppm,226% OF CONTROL
same,BUT,[1]; 5 ppm,66% OF CONTROL
same,DLAC,[1]; 5 ppm,0% OF CONTROL
same,ETOH,[1]; 5 ppm,0% OF CONTROL
same,GLU,[1]; 5 ppm,0% OF CONTROL
same,IBU,[1]; 5 ppm,108% OF CONTROL
same,IVA,[1]; 5 ppm,75% OF CONTROL
same,LLAC,[1]; 5 ppm,0% OF CONTROL
same,LYS,[1]; 5 ppm,117% OF CONTROL
same,NH--N,[1]; 5 ppm,116% OF CONTROL
same,PRO,[1]; 5 ppm,148% OF CONTROL
same,TOTAL,[1]; 5 ppm,98% OF CONTROL
same,VAL,[1]; 5 ppm,83% OF CONTROL
same,% PR,[1]; 50 ppm,188% OF CONTROL
same,ACE,[1]; 50 ppm,76% OF CONTROL
same,AMO,[1]; 50 ppm,268% OF CONTROL
same,BUT,[1]; 50 ppm,63% OF CONTROL
same,DLAC,[1]; 50 ppm,0% OF CONTROL
same,ETOH,[1]; 50 ppm,0% OF CONTROL
same,GLU,[1]; 50 ppm,0% OF CONTROL
same,IBU,[1]; 50 ppm,61% OF CONTROL
same,IVA,[1]; 50 ppm,46% OF CONTROL
same,LLAC,[1]; 50 ppm,0% OF CONTROL
same,LYS,[1]; 50 ppm,114% OF CONTROL
same,NH--N,[1]; 50 ppm,82% OF CONTROL
same,PRO,[1]; 50 ppm,168% OF CONTROL
same,TOTAL,[1]; 50 ppm,89% OF CONTROL
same,VAL,[1]; 50 ppm,60% OF CONTROL
CC[C@@]1([C@H]2O[C@H]([C@H]3O[C@@](O)(CO)[C@H](C)C[C@@H]3C)C[C@H]2C)CC[C@H]([C@@]2(C)CC[C@]3(C[C@H](O)[C@@H](C)[C@@H]([C@H](C)[C@H](OC)[C@@H](C)C(=O)O)O3)O2)O1 [Monensin Sodium],% PR,rumen inoculum; 0.5 ppm,119% OF CONTROL
same,ACE,rumen inoculum; 0.5 ppm,78% OF CONTROL
same,AMO,rumen inoculum; 0.5 ppm,0% OF CONTROL
same,BUT,rumen inoculum; 0.5 ppm,100% OF CONTROL
same,DLAC,rumen inoculum; 0.5 ppm,0% OF CONTROL
same,ETOH,rumen inoculum; 0.5 ppm,0% OF CONTROL
same,IBU,rumen inoculum; 0.5 ppm,138% OF CONTROL
same,IVA,rumen inoculum; 0.5 ppm,219% OF CONTROL
same,LLAC,rumen inoculum; 0.5 ppm,0% OF CONTROL
same,PRO,rumen inoculum; 0.5 ppm,112% OF CONTROL
same,TOTAL,rumen inoculum; 0.5 ppm,94% OF CONTROL
same,UREA,rumen inoculum; 0.5 ppm,0% OF CONTROL
same,VAL,rumen inoculum; 0.5 ppm,101% OF CONTROL
same,VFA,rumen inoculum; 0.5 ppm,94 % Control
same,% PR,rumen inoculum; 5 ppm,149% OF CONTROL
same,ACE,rumen inoculum; 5 ppm,74% OF CONTROL
same,AMO,rumen inoculum; 5 ppm,0% OF CONTROL
same,BUT,rumen inoculum; 5 ppm,93% OF CONTROL
same,DLAC,rumen inoculum; 5 ppm,0% OF CONTROL
same,ETOH,rumen inoculum; 5 ppm,0% OF CONTROL
same,IVA,rumen inoculum; 5 ppm,265% OF CONTROL
same,LLAC,rumen inoculum; 5 ppm,178% OF CONTROL
same,PRO,rumen inoculum; 5 ppm,154% OF CONTROL
same,TOTAL,rumen inoculum; 5 ppm,104% OF CONTROL
same,UREA,rumen inoculum; 5 ppm,0% OF CONTROL
same,VAL,rumen inoculum; 5 ppm,99% OF CONTROL
same,VFA,rumen inoculum; 5 ppm,104 % Control
same,% PR,rumen inoculum; 50 ppm,156% OF CONTROL
same,ACE,rumen inoculum; 50 ppm,73% OF CONTROL
same,AMO,rumen inoculum; 50 ppm,0% OF CONTROL
same,BUT,rumen inoculum; 50 ppm,98% OF CONTROL
same,DLAC,rumen inoculum; 50 ppm,0% OF CONTROL
same,ETOH,rumen inoculum; 50 ppm,0% OF CONTROL
same,IBU,rumen inoculum; 50 ppm,196% OF CONTROL
same,IVA,rumen inoculum; 50 ppm,278% OF CONTROL
same,LLAC,rumen inoculum; 50 ppm,999% OF CONTROL
same,PRO,rumen inoculum; 50 ppm,171% OF CONTROL
same,UREA,rumen inoculum; 50 ppm,0% OF CONTROL
same,VAL,rumen inoculum; 50 ppm,107% OF CONTROL
same,% PR,[1]; 0.5 ppm,117% OF CONTROL
same,ACE,[1]; 0.5 ppm,100% OF CONTROL
same,AMO,[1]; 0.5 ppm,115% OF CONTROL
same,BUT,[1]; 0.5 ppm,94% OF CONTROL
same,DLAC,[1]; 0.5 ppm,0% OF CONTROL
same,ETOH,[1]; 0.5 ppm,0% OF CONTROL
same,GLU,[1]; 0.5 ppm,0% OF CONTROL
same,IBU,[1]; 0.5 ppm,104% OF CONTROL
same,IVA,[1]; 0.5 ppm,114% OF CONTROL
same,LLAC,[1]; 0.5 ppm,0% OF CONTROL
same,LYS,[1]; 0.5 ppm,96% OF CONTROL
same,NH--N,[1]; 0.5 ppm,137% OF CONTROL
same,PRO,[1]; 0.5 ppm,122% OF CONTROL
same,TOTAL,[1]; 0.5 ppm,104% OF CONTROL
same,VAL,[1]; 0.5 ppm,105% OF CONTROL
same,% PR,[1]; 5 ppm,146% OF CONTROL
same,ACE,[1]; 5 ppm,102% OF CONTROL
same,AMO,[1]; 5 ppm,238% OF CONTROL
same,BUT,[1]; 5 ppm,71% OF CONTROL
same,DLAC,[1]; 5 ppm,0% OF CONTROL
same,ETOH,[1]; 5 ppm,0% OF CONTROL
same,GLU,[1]; 5 ppm,0% OF CONTROL
same,IBU,[1]; 5 ppm,91% OF CONTROL
same,IVA,[1]; 5 ppm,75% OF CONTROL
same,LLAC,[1]; 5 ppm,0% OF CONTROL
same,LYS,[1]; 5 ppm,95% OF CONTROL
same,NH--N,[1]; 5 ppm,105% OF CONTROL
same,PRO,[1]; 5 ppm,145% OF CONTROL
same,TOTAL,[1]; 5 ppm,99% OF CONTROL
same,VAL,[1]; 5 ppm,81% OF CONTROL
same,% PR,[1]; 50 ppm,185% OF CONTROL
same,ACE,[1]; 50 ppm,76% OF CONTROL
same,AMO,[1]; 50 ppm,274% OF CONTROL
same,BUT,[1]; 50 ppm,59% OF CONTROL
same,DLAC,[1]; 50 ppm,0% OF CONTROL
same,ETOH,[1]; 50 ppm,0% OF CONTROL
same,GLU,[1]; 50 ppm,0% OF CONTROL
same,IBU,[1]; 50 ppm,55% OF CONTROL
same,IVA,[1]; 50 ppm,45% OF CONTROL
same,LLAC,[1]; 50 ppm,0% OF CONTROL
same,LYS,[1]; 50 ppm,120% OF CONTROL
same,NH--N,[1]; 50 ppm,84% OF CONTROL
same,PRO,[1]; 50 ppm,159% OF CONTROL
same,TOTAL,[1]; 50 ppm,86% OF CONTROL
same,VAL,[1]; 50 ppm,58% OF CONTROL
CC[C@@H](C(=O)[C@@H](C)[C@@H](O)[C@H](C)CCc1ccc(C)c(O)c1C(=O)O)[C@H]1O[C@](CC)([C@H]2CC[C@](O)(CC)[C@H](C)O2)C[C@@H]1C [Lasalocid],% PR,[1]; 0.5 ppm,114% OF CONTROL
same,ACE,[1]; 0.5 ppm,95% OF CONTROL
same,AMO,[1]; 0.5 ppm,93% OF CONTROL
same,BUT,[1]; 0.5 ppm,94% OF CONTROL
same,DLAC,[1]; 0.5 ppm,0% OF CONTROL
same,ETOH,[1]; 0.5 ppm,0% OF CONTROL
same,GLU,[1]; 0.5 ppm,0% OF CONTROL
same,IBU,[1]; 0.5 ppm,119% OF CONTROL
same,IVA,[1]; 0.5 ppm,102% OF CONTROL
same,LLAC,[1]; 0.5 ppm,0% OF CONTROL
same,LYS,[1]; 0.5 ppm,106% OF CONTROL
same,NH--N,[1]; 0.5 ppm,106% OF CONTROL
same,PRO,[1]; 0.5 ppm,112% OF CONTROL
same,TOTAL,[1]; 0.5 ppm,99% OF CONTROL
same,VAL,[1]; 0.5 ppm,87% OF CONTROL
same,% PR,[1]; 5 ppm,136% OF CONTROL
same,ACE,[1]; 5 ppm,109% OF CONTROL
same,AMO,[1]; 5 ppm,198% OF CONTROL
same,BUT,[1]; 5 ppm,79% OF CONTROL
same,DLAC,[1]; 5 ppm,0% OF CONTROL
same,ETOH,[1]; 5 ppm,0% OF CONTROL
same,GLU,[1]; 5 ppm,0% OF CONTROL
same,IBU,[1]; 5 ppm,164% OF CONTROL
same,IVA,[1]; 5 ppm,91% OF CONTROL
same,LLAC,[1]; 5 ppm,0% OF CONTROL
same,LYS,[1]; 5 ppm,130% OF CONTROL
same,NH--N,[1]; 5 ppm,131% OF CONTROL
same,PRO,[1]; 5 ppm,144% OF CONTROL
same,TOTAL,[1]; 5 ppm,106% OF CONTROL
same,VAL,[1]; 5 ppm,90% OF CONTROL
same,% PR,[1]; 50 ppm,186% OF CONTROL
same,ACE,[1]; 50 ppm,65% OF CONTROL
same,AMO,[1]; 50 ppm,278% OF CONTROL
same,BUT,[1]; 50 ppm,62% OF CONTROL
same,DLAC,[1]; 50 ppm,0% OF CONTROL
same,ETOH,[1]; 50 ppm,0% OF CONTROL
same,GLU,[1]; 50 ppm,0% OF CONTROL
same,IBU,[1]; 50 ppm,51% OF CONTROL
same,IVA,[1]; 50 ppm,41% OF CONTROL
same,LLAC,[1]; 50 ppm,0% OF CONTROL
same,LYS,[1]; 50 ppm,150% OF CONTROL
same,NH--N,[1]; 50 ppm,78% OF CONTROL
same,PRO,[1]; 50 ppm,151% OF CONTROL
same,TOTAL,[1]; 50 ppm,81% OF CONTROL
same,VAL,[1]; 50 ppm,53% OF CONTROL
